This experiment relates to drug-resistant Mycobacterium tuberculosis. The following applies: peptide 10 micrograms per ml, seven days.

A word on the % inhibition: it is the drop in the measured response relative to a control, in per cent. High values mean strong suppression, low ones little suppression. “Ac-HWAVGHL-NH2 [Acetyl-GRP (20-26), Ac-His-Trp-Ala-Val-Gly-His-Leu-NH2]”: the “% inhibition” value is on record as 0.0%.
